Assay [1] concerns C57BL/6J mice. Nature of the assay: Pre-pulse inhibition (PPI) test, impairment induced by MK-801. In kind it is in vivo. Here is the method:
The experiments were performed using male C57BL/6J mice weighting 25-30 g. The animals were maintained throughout the experimental period under standard laboratory conditions with free access to water and food will be used.
HU-474 (3 and 10 mg/kg) was dissolved in 2% Tween 80 in sterile saline (vehicle). MK-801 (a NMDA antagonist, 0.5 mg/kg, Sigma, USA) was dissolved in saline. Drugs were administered intraperitoneally (ip) at 10 mL/kg volume.
The animals (n=9-11/group) received i.p. administration of vehicle or HU-474 (3 and 10 mg/kg) followed, 30 minutes later, by saline or MK-801 (0.5 mg/kg), resulting in the following experimental groups: vehicle+saline, HU 10+saline, vehicle+MK-801, HU 3+MK-801, HU 10+MK-801. The animals were submitted to PPI test 20 minutes after the last drug injection.
The PPI was carried out in three consecutive steps. The first consisted of an acclimation period during which no stimulus was presented. In the second step, called habituation, only the stimulus that triggers the startle (pulse) was presented. The step that assessed the inhibition of startle response pulse consisted of 64 random presentations of the different stimuli: (i) pulse (white noise) 105 dB at 20 ms, (II) pre-pulse (pure tone frequency of 7 kHz) 80, 85 and 90 dB at 10 ms, (III) followed by pre-pulse 100 ms interval between them and (IV) zero (no stimulus). During this session the stimuli are presented at regular intervals of 30 s, 8 presentations of each stimulus. The percentage of the PPI was expressed as the percent inhibition of startle amplitude in response to multiple presentations of the pulse preceded by pre-pulse (PP), depending on the amplitude of the response only to the pulse (P), which was obtained in the following formula: % PPI=100−((PP/P)×100). […]
The percentage of PPI was analyzed by repeated measures MANOVA with the treatment as the independent factor and the prepulse intensity (80, 85 and 90 dB) as repeated measure.

In assay [2] the test system is Swiss mice. Conditions: Moreira and Guimarães, 2005; cited from earlier work.
The conditions of assay [3]: Campos & Guimarães, 2008; cited from earlier work.
The test system of assay [4] is mice tested in the FST. The settings on record: i.p., Swiss mice; doses tested 3, 10, 30 and 100 mg/kg; cited from earlier work.
For assay [5], the system named is Swiss mice. Conditions: cited from earlier work.
Assay [6] has as its system rats submitted to the elevated plus maze. The settings on record: intra-dlPAG, same paradigm; doses tested: 15, 30 and 60 nmol; cited from earlier work.
Assay [7] has as its system Swiss mice. The settings on record: single administration i.p., MK801 0.3-1 mg/kg i.p., also tested 1 and 15 mg/kg; cited from earlier work.
Assay [8] has as its system mice tested in the FST. Nature of the assay: Forced swimming test (FST) in mice. In kind it is in vivo, Swiss mice. Conditions: for immobility time in the FST: IP. Here is the method: (§1) Male Wistar rats (220-250 g) and Swiss mice (25-30 g) originated from the Central Animal Farm of the School of Medicine of Ribeirão Preto (FMRP-USP) were maintained in groups of five animals per box (41×33×17 cm) in a temperature controlled room (24±2° C.) with a 12×12 h light-dark cycle. They received water and food ad libitum throughout the study period.
(§2) HU-474 (1, 3 and 10 mg/kg) was administered intraperitoneally (IP) in mice at 10 mL/kg volume and HU-475 (1, 3 and 10 nmol) was injected intra-dlPAG in rats. Both drugs were dissolved in 2% Tween 80 in sterile saline.
Animals were individually submitted for 6 min of forced swimming in glass cylinders (height 25 cm, diameter 17 cm) containing 10 cm of water. The mice were videotaped and the immobility time (characterized by slow movements necessary to avoid drowning) was measured during the last 4-min period. The water was changed after each trial to maintain the temperature at 23-25° C. and to prevent the influence of alarm substances (Zanelati et al., 2010).
(§3) Results from HU-475 and HU-474 tests in the elevated plus maze were analyzed by Kruskal-Wallis followed by Mann-Whitney tests. Data from animals tested in the FST were analyzed by one-way ANOVA followed by Duncan test.

Assay [9] has as its system mice tested in the elevated plus maze. Nature of the assay: Elevated plus-maze (EPM) in mice, systemic (IP) administration. The class given is in vivo, Swiss mice. Here is the method: as §1, §2
The wood EPM used to perform the experiments was located in a sound attenuated and temperature controlled room (23° C.), with one incandescent light (40 W) placed 1.3 m away from the maze. The apparatus consists of two opposing open arms (50×10 cm) without side walls, perpendicular to two enclosed arms (50×10×40 cm), with a central platform common to all arms (10×10 cm). The apparatus is elevated 50 cm above the ground and has an acrylic edge (1 cm) in the open arms to prevent animal falls. In this model, rodents naturally avoid the open arms, exploring more extensively the enclosed arms. Anxiolytic drugs increase the exploration in open arms without affecting the number of enclosed arms entries, which is usually used to assess general exploratory activity (File, 1992). Ten minutes after the last injection the animal was placed on the central platform of the maze with the head facing one of the enclosed arms. The test lasted for 5 min and was recorded. The animal behavior was analyzed with the help of the Anymaze Software (version 4.5, Stoelting). This software indicates the location of the animal in the EPM and automatically calculates the percentage of entries (Peo) and time spent in the open arms (Pto) and the number of entries in the enclosed arms (EA). Animals were only considered to enter an open or enclosed arm when 90% of their bodies were inside the region. All experiments were performed in the morning period (8 to 12 a.m.).
Similar to 5.1 except that the each arm measured 30×5 cm.
as §3

Assay [10] concerns rats submitted to the elevated plus maze. Kind of assay: Elevated plus-maze (EPM), intra-dlPAG microinjection in rats. The class given is in vivo, Wistar rats. Here is the method:
as §1, §2
Rats were submitted to a stereotaxic surgery to unilaterally implant cannulae (9.0 mm, 0.6 mm OD) into the dlPAG (coordinates: lateral: −1.9 mm; depth: −4.3 mm; angle: 16° from lambda; Paxinos and Watson, 2005), fixed to the skull with acrylic cement (Campos & Guimarães, 2008). The surgeries were performed under anesthesia with tribromoethanol 2.5% (10.0 mL/kg, IP) and immediately after the animals received Veterinary Pentabiotic (0.2 mL, intramuscular) and analgesic (Banamine, 1.0 mL/kg, subcutaneous) to prevent infections and decrease post-surgical pain. After surgery, animals underwent a recovery period of 5-7 days before the behavioral tests.
Animals received unilateral microinjections of vehicle or HU-475 into the dlPAG before being submitted to the behavioral tests. To this aim, microneedles (10.0 mm, 0.3 mm OD), connected to a microsyringe (Hamilton, USA, […]) through a segment of polyethylene (P10) were inserted into the guide cannulae. Solutions were injected with the help of an infusion pump (KD Scientific, USA). A 0.2 μL solution volume was injected over 1 min. After the injections, the needles remained inserted in the cannulae for additional 30 seconds to prevent drug reflux (Campos & Guimarães, 2008).
The wood EPM used to perform the experiments was located in a sound attenuated and temperature controlled room (23° C.), with one incandescent light (40 W) placed 1.3 m away from the maze. The apparatus consists of two opposing open arms (50×10 cm) without side walls, perpendicular to two enclosed arms (50×10×40 cm), with a central platform common to all arms (10×10 cm). The apparatus is elevated 50 cm above the ground and has an acrylic edge (1 cm) in the open arms to prevent animal falls. In this model, rodents naturally avoid the open arms, exploring more extensively the enclosed arms. […] The test lasted for 5 min and was recorded. The animal behavior was analyzed with the help of the Anymaze Software (version 4.5, Stoelting). […]
as §3

Where “and” joins values, the source holds several entries; their conditions need not be identical. Identical values can stand only once.

As to `C[C@]12N[C@H](Cc3ccccc31)c1ccccc12` [MK-801, reference compound], the “effect on PPI” value in [1] (MK-801 0.5 mg/kg i.p., all prepulse intensities tested, P<0.05, Duncan post-test) is given as “significant PPI disruption”.
On to `C=C(C)[C@@H]1CCC(C)=C[C@H]1c1c(O)cc(CCCCC)cc1O` [CBD, cannabidiol], for which the “dose able to attenuate the hyper-locomotion induced by MK801” value in [2] is listed as 30 mg/kg. Further, in assay [3], the “dose producing an anxiolytic-like effect in the Vogel punished licking test” value is recorded as 30 nmol. Moreover, in assay [4], the “dose producing an antidepressant-like effect in the forced swimming test” value is 30 mg/kg. For the same molecule, the “effective doses (hyperlocomotion induced by d-amphetamine)” value in assay [5] is 30 mg/kg and 60 mg/kg. For the same molecule, the “effective dose (anxiolytic-like effect, EPM)” value in assay [6] is 30 nmol. Moreover, in [7], the “effective dose (attenuation of PPI deficits caused by MK801)” value is 5 mg/kg.
On to `C=C(C)[C@@H]1CCC(C)=CC1c1c(O)cc(CCCCC)c(F)c1O` (some centres unmarked) [HU-474, 4′-fluoro-cannabidiol], for which the “immobility time in the FST” value in assay [8] (dose of 3 m/kg, p=0.019, FIG. 5) was “decreased”; in assay [8] (doses of 1 and 10 mg/kg), “ineffective”. The “potency relative to CBD (forced swimming test)” value in assay [8] (i.p., compared with CBD effective dose) is 10 times. Besides, in assay [1] (HU-474 10 mg/kg i.p., MK-801 0.5 mg/kg, all prepulse intensities (80, 85, 90 dB), P<0.05, FIG. 6), the “MK-801 PPI disruption (effect of treatment)” value is “attenuated”. The “effective dose (attenuation of MK-801 PPI disruption)” value in assay [1] (i.p., C57BL/6J mice) is reported as 10 mg/kg. Moreover, the “number of enclosed arms entries” value in [9] (HU-474 1, 3 and 10 mg/kg IP) is given as “No effect”. In assay [9] (HU-474 1, 3 and 10 mg/kg IP, FIG. 4), the “percentage of entries onto the open arms” value is reported as “No effect”. Further, in [9] (HU-474 1, 3 and 10 mg/kg IP, X^2=8.13, DF=3, p<0.05, FIG. 3), the “percentage of time spent in the open arms” value is “increased”. Further, in [9] (systemic administration, bell-shaped dose-response curve), the “effective dose (anxiolytic-like effects, EPM)” value was found to be 3 mg/kg.
For the molecule `C=C(CF)[C@@H]1CCC(C)=CC1c1c(OC(C)=O)cc(CCCCC)cc1OC(C)=O` (some centres unmarked) [HU-475, 10-fluoro-cannabidiol diacetate], the “number of enclosed arm entries” value in assay [10] (HU-475 1, 3 and 10 nmol intra-dlPAG) is listed as “No effect”. Further, in assay [10] (HU-475 1, 3 and 10 nmol intra-dlPAG, X^2=8.5, DF=4, p=0.075, FIG. 2), the “percentage of time spent into the open arms” value is reported as “tended to do the same”. Further, the “percentage of entries onto the open arms” value in assay [10] (HU-475 1, 3 and 10 nmol intra-dlPAG, X^2=9.66, DF=4, p<0.05, FIG. 1) is given as “increased”. Moreover, in assay [10] (intra-dlPAG, compared with CBD effective dose), the “potency relative to CBD (EPM, intra-dlPAG)” value turned out to be 10 times.
